These results are taken from publication PMC9716094, “Synthesis of novel amidines via one-pot three component reactions: Selective topoisomerase I inhibitors with antiproliferative properties” (Frontiers in Chemistry, 2022).

Data set [1] deals with four cancer cell lines (A-549, MCF-7, Panc-1, HT-29). Briefly: Antiproliferative assay, average over the four cancer cell lines (GI50). Particulars: for IC50: read-out: Antiproliferative activity IC50, Average (mean GI50); for Fold less potent than the reference doxorubicin (GI50): mean GI50 compared with doxorubicin.
Experimental: (§3) The IC50 of each compound was calculated using doxorubicin as the reference.
(§4) To explore the antiproliferative potential of compounds MTT assay was performed according to previously reported procedure using different cell lines to explore the antiproliferative potential of compounds propidium iodide fluorescence assay was performed using different cell lines. To calculate the total nuclear DNA, a fluorescent dye (propidium iodide, PI) is used which can attach to the DNA, thus offering a quick and precise technique. PI cannot pass through the cell membrane and its signal intensity can be considered as directly proportional to quantity of cellular DNA. Cells whose cell membranes are damaged or have changed permeability are counted as dead ones. The assay was performed by seeding the cells of different cell lines at a density of 3000-7500 cells/well (in 200µl medium) in culture plates followed by incubation for 24h at 37 °C in humidified 5% CO2/95% air atmospheric conditions. The medium was removed; the compounds were added to the plates at 10 µM concentrations (in 0.1% DMSO) in triplicates, followed by incubation for 48 h. DMSO (0.1%) was used as control. After incubation, medium was removed followed by the addition of PI (25 µl, 50µg/mL in water/medium) to each well of the plates. At -80 °C, the plates were allowed to freeze for 24 h, followed by thawing at 25 °C. A fluorometer (Polar-Star BMG Tech) was used to record the readings at excitation and emission wavelengths of 530 and 620 nm for each well. The percentage cytotoxicity of compounds was calculated using the following formula:
Data set [2] is described as follows: Cell viability assay (MTT) on normal cell line.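 Also: values are percent cell viability not percent inhibition.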 In kind it is cell-based. Particulars: human, MCF-10A mammary epithelial cells, 50 µM of compound. As for the experimental part: To study the effect of 4a-l and 5a-c on normal cell lines, a cell viability assay was done using the MCF-10A (human mammary gland epithelial) cell line ([Abdelbaset et al., 2019]; [Al-Wahaibi et al., 2020]). This study uses a concentration of 50 µM of the investigated compound for 4 days, after which cell viability is evaluated.
To study the effect of 4a-l and 5a-c on normal cell lines, a cell viability assay was done using the MCF-10A (human mammary gland epithelial) cell line ([Abdelbaset et al., 2019]; [Al-Wahaibi et al., 2020]). See Supplementary Appendix S1A.
MTT assay was carried out to study the effect of compounds on mammary epithelial cells (MCF-10A). The medium in which cells were propagated contained Dulbecco's modified Eagle's medium (DMEM)/ Ham's F-12 medium (1:1) supplemented with epidermal growth factor (20 ng/mL), hydrocortisone (500 ng/mL), insulin (10 μg/mL), 2 mM glutamine and 10% fetal calf serum. After every 2-3 days, the cells were passaged using trypsin ethylenediamine tetra acetic acid (EDTA). The cells were seeded at a density of 10^4 cells mL^-1 in flat-bottomed culture plates containing 96 wells each. After 24 h, medium was removed from the plates and the compounds in (in 0.1% DMSO) were added (in 200 μL medium to yield a final concentration of 0.1% v/v) to the wells of plates. A single compound was designated with four wells followed by incubation of plates for 96h at 37°C. After incubation, medium was removed completely from the plates followed by addition of MTT (0.4 mg/mL in medium) to each well and subsequent incubation of plates for 3h. MTT (along with the medium) was removed and DMSO (150μL) was added to each well of the culture plates, followed by vortexing and subsequent measurement of absorbance (at 540 nm) using microplate reader. The data are shown as percentage inhibition of proliferation in comparison with controls containing 0.1% DMSO.

Data set [3] has as its system MCF-7 (breast cancer cell line). Put plainly: Antiproliferative assay, MCF-7. The class given is cell-based. Particulars: Homo sapiens, MCF7; read-out: Antiproliferative activity IC50 ± SEM, MCF-7. The source says: (§1) See Supplementary Appendix S1A.
(§2) DMSO (0.1%) was used as control.

In data set [4] the test system is A-549 (epithelial cancer cell line). Put plainly: Antiproliferative assay, A-549. In kind it is cell-based. Particulars: Homo sapiens, A549; read-out: Antiproliferative activity IC50 ± SEM, A-549.
Source text: as §1, §2

The test system of data set [5] is Panc-1 (pancreas cancer cell line). Put plainly: Antiproliferative assay, Panc-1. In kind it is cell-based. The settings on record: Homo sapiens, read-out: Antiproliferative activity IC50 ± SEM, Panc-1.
Source text: as §1, §2

Data set [6] relates to HT-29 (colon cancer cell line). Put plainly: Antiproliferative assay, HT-29. Particulars: Homo sapiens, HT-29, read-out: Antiproliferative activity IC50 ± SEM, HT-29.
Experimental: as §3, §4

As usually defined, the IC50 is the concentration needed to halve the response being measured. In general, viability refers to the share of living cells, or the viability signal relative to a control. Read a high viability as less harm to the cells. A word on the melting point: it is the temperature, or range, at which the solid turns liquid. For `O=c1cc(/N=C(\C2CCCC2)N2CCCCC2)c2ccccc2[nH]1` [Compound 4a, (E) 4-((Cyclopentyl(piperidin-1-yl)methylene)amino)quinolin-2(1H)-one], the melting point was found to be 210 °C. For the same molecule, the IC50 in data set [1] worked out at 5.5 µM. For the same molecule, the viability at 4 days, 50 µM in data set [2] was determined as 85%. In addition, the IC50 in data set [3] worked out at 5.1 ± 0.5 µM. Further, the IC50 in data set [4] came to 5.9 ± 0.5 µM. Also, in data set [5], the IC50 is 5.4 ± 0.5 µM. Also, the IC50 in data set [6] worked out at 5.5 ± 0.5 µM.

In turn, `COc1ccc2[nH]c(=O)cc(/N=C(\C3CCCC3)N3CCCCC3)c2c1` [Compound 4c, (E) 4-((Cyclopentyl(piperidin-1-yl)methylene)amino)-6-methoxyquinolin-2(1H)-one] displayed a melting point of 250 °C. In data set [1], the IC50 was determined as 2.1 µM. The same molecule displayed a viability at 4 days, 50 µM in data set [2] of 91%. Further, the IC50 in data set [3] amounted to 1.9 ± 0.2 µM. Besides, the IC50 in data set [4] amounted to 2.3 ± 0.2 µM. For the same molecule, in data set [5], the IC50 turned out to be 2.05 ± 0.2 µM. The IC50 in data set [6] is 2.2 ± 0.2 µM.

`Cn1c(=O)cc(/N=C(\C2CCCC2)N2CCCCC2)c2ccccc21` [Compound 4f, (E) 4-((Cyclopentyl(piperidin-1-yl)methylene)amino)-1-methylquinolin-2(1H)-one] gave a melting point of 142 °C. The IC50 in data set [1] was found to be 7.8 µM. Besides, in data set [2], the viability at 4 days, 50 µM was 87%. Besides, the IC50 in data set [3] was 7.5 ± 0.8 µM. Moreover, the IC50 in data set [4] amounted to 8 ± 0.8 µM. Besides, in data set [5], the IC50 turned out to be 7.9 ± 0.8 µM. In data set [6], the IC50 was determined as 7.7 ± 0.8 µM.

For `O=c1cc(/N=C(\C2CCCC2)N2CCOCC2)c2ccccc2[nH]1` [Compound 4g, (E) 4-((Cyclopentyl(morpholino)methylene)amino)quinolin-2(1H)-one], the “Fold less potent than the reference doxorubicin (GI50)” value in data set [1] is recorded as “at least 6 fold”. Also, the IC50 in data set [1] turned out to be 6.1 µM; in data set [3] it was 5.9 ± 0.6 µM; in data set [4] it was 6.3 ± 0.6 µM; in data set [5], 6.1 ± 0.6 µM; in data set [6], 6.2 ± 0.6 µM. The same molecule gave a viability at 4 days, 50 µM in data set [2] of 89%.

The molecule `Cc1ccc2[nH]c(=O)cc(/N=C(\C3CCCC3)N3CCOCC3)c2c1` [Compound 4h, (E) 4-((Cyclopentyl(morpholino)methylene)amino)-6-methylquinolin-2(1H)-one] returned a melting point of 226 °C. Besides, the IC50 in data set [1] stood at 2.3 µM. Besides, the viability at 4 days, 50 µM in data set [2] amounted to 91%. Further, the IC50 in data set [3] came to 1.9 ± 0.2 µM. Also, the concentration for half-maximal inhibition (IC50) in data set [4] came out at 2.6 ± 0.2 µM. The IC50 in data set [5] came out at 2.3 ± 0.2 µM. For the same molecule, in data set [6], the IC50 was 2.3 ± 0.2 µM.

For the molecule `O=c1cc(/N=C(\C2CCCC2)N2CCOCC2)c2cc(Cl)ccc2[nH]1` [Compound 4j, (E) 4-((Cyclopentyl(morpholino)methylene)amino)-6-chloroquinolin-2(1H)-one], the melting point came out at 247 °C. Also, in data set [1], the half-inhibitory concentration (IC50) was found to be 3.3 µM. In data set [2], this molecule returned a viability at 4 days, 50 µM of 89%. The IC50 in data set [3] was 2.9 ± 0.3 µM. Also, the IC50 in data set [4] turned out to be 3.7 ± 0.3 µM. Moreover, in data set [5], the IC50 is 3.1 ± 0.3 µM. The IC50 in data set [6] turned out to be 3.5 ± 0.3 µM.

Regarding `Cc1cccc2c(/N=C(\C3CCCC3)N3CCOCC3)cc(=O)[nH]c12` [Compound 4k, (E) 4-((Cyclopentyl(morpholino)methylene)amino)-8-methylquinolin-2(1H)-one], the melting point was 220 °C. Besides, the IC50 in data set [1] worked out at 4.2 µM. The molecule also displayed a viability at 4 days, 50 µM in data set [2] of 91%. In addition, the IC50 in data set [3] amounted to 4.05 ± 0.4 µM. For the same molecule, the IC50 in data set [4] is 4.6 ± 0.4 µM. The IC50 in data set [5] was 4.2 ± 0.4 µM. Also, the IC50 in data set [6] turned out to be 4.1 ± 0.4 µM.

`Cn1c(=O)cc(/N=C(\C2CCCC2)N2CCOCC2)c2ccccc21` [Compound 4l, (E) 4-((Cyclopentyl(morpholino)methylene)amino)-1-methylquinolin-2(1H)-one]: the “Fold less potent than the reference doxorubicin (GI50)” value in data set [1] is recorded as “at least 6 fold”. Besides, the IC50 in data set [1] was 7.3 µM; in data set [3], 7.1 ± 0.7 µM; in data set [4], 7.6 ± 0.7 µM; in data set [5], 7.4 ± 0.7 µM; in data set [6], 7.2 ± 0.7 µM. The molecule also came in with a viability at 4 days, 50 µM in data set [2] of 89%.

For `O=c1cc(/N=C(\C2CCCC2)N2CCN(/C(=N/c3cc(=O)[nH]c4ccccc34)C3CCCC3)CC2)c2ccccc2[nH]1` [Compound 5a, 4,4'-((1E,1′E)-(piperazine-1,4-diylbis(cyclopentylmethanylylidene))bis(azanylylid-ene))bis(quinolin-2(1H)-one)], the melting point worked out at 360 °C. Further, in data set [1], the IC50 came to 5 µM. Also, the viability at 4 days, 50 µM in data set [2] was 91%. For the same molecule, in data set [3], the IC50 is 4.7 ± 0.4 µM. In addition, the concentration for half-maximal inhibition (IC50) in data set [4] was found to be 5.15 ± 0.3 µM. The IC50 in data set [5] is 4.9 ± 0.3 µM. For the same molecule, the IC50 in data set [6] is 5.1 ± 0.3 µM.

As to `Cc1ccc2[nH]c(=O)cc(/N=C(\C3CCCC3)N3CCN(/C(=N/c4cc(=O)[nH]c5ccc(C)cc45)C4CCCC4)CC3)c2c1` [Compound 5b, 4,4'-((1E,1′E)-(piperazine-1,4-diylbis(cyclopentylmethanylylidene))bis(azanylylid-ene))bis(6-methylquinolin-2(1H)-one)], the melting point worked out at 355 °C. Besides, in data set [1], the IC50 was 3.9 µM. The viability at 4 days, 50 µM in data set [2] came to 91%. The IC50 in data set [3] stood at 3.7 ± 0.3 µM. The IC50 in data set [4] turned out to be 4.1 ± 0.3 µM. The IC50 in data set [5] was determined as 3.9 ± 0.3 µM. In data set [6], the IC50 turned out to be 3.8 ± 0.3 µM.

On to `COc1cccc2c1C(=O)c1c(O)c3c(c(O)c1C2=O)C[C@@](O)(C(=O)CO)C[C@@H]3O[C@H]1C[C@H](N)[C@H](O)[C@H](C)O1` [Doxorubicin, reference compound], for which the IC50 in data set [1] worked out at 1.1 µM; in data set [3], 0.9 ± 0.1 µM; in data set [4], 1.2 ± 0.1 µM; in data set [5], 1.4 ± 0.2 µM; in data set [6], 1 ± 0.1 µM.
